Patent US11629143B2, “HipK4 inhibitors and uses thereof” (Vibliome Therapeutics, LLC, priority 2020, dated 2023)

Tests used:
HIPK3 = HIPK3 (Homo sapiens, UniProt Q9H422); experiment: Kinase panel (mobility shift); format: biochemical
In short: (§1)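 Tested at a single 5 um concentration within a 299-kinase panel, compounds were scored by electrophoretic mobility shift of a fluorescent substrate into product. Categories: A, 95% or greater; B, 90%-94%; C, 80%-89%.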

TAOK3 = molecular target: T1, TAOK3 (Homo sapiens, UniProt Q9H2K8); experiment: Kinase panel (mobility shift); format: biochemical
T1 sequence (Q9H2K8 1-898): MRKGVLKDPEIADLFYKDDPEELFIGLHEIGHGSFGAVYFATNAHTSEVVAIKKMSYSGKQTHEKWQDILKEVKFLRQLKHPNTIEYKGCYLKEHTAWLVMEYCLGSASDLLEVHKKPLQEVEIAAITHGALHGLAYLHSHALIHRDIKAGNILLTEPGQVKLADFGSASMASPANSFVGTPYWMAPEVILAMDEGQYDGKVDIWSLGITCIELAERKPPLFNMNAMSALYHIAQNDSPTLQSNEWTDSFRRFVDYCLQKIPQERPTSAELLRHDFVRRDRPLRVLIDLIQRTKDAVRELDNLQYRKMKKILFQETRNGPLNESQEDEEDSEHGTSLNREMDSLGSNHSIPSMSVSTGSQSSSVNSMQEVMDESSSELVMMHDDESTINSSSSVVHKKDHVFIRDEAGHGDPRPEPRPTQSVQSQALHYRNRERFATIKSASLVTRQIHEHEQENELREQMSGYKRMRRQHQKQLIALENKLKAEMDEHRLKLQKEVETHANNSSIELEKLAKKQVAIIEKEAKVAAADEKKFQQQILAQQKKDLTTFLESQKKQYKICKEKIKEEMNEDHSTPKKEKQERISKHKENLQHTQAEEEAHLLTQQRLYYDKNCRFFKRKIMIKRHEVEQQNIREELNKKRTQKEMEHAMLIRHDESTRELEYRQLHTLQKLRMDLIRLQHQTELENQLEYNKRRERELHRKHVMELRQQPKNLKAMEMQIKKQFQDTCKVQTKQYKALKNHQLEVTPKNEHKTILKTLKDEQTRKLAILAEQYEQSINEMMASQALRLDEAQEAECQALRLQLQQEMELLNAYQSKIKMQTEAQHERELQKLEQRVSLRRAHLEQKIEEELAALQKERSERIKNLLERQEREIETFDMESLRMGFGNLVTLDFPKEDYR
In short: as §1

HIPK3, sequence (Q9H422 whole entry, species assumed): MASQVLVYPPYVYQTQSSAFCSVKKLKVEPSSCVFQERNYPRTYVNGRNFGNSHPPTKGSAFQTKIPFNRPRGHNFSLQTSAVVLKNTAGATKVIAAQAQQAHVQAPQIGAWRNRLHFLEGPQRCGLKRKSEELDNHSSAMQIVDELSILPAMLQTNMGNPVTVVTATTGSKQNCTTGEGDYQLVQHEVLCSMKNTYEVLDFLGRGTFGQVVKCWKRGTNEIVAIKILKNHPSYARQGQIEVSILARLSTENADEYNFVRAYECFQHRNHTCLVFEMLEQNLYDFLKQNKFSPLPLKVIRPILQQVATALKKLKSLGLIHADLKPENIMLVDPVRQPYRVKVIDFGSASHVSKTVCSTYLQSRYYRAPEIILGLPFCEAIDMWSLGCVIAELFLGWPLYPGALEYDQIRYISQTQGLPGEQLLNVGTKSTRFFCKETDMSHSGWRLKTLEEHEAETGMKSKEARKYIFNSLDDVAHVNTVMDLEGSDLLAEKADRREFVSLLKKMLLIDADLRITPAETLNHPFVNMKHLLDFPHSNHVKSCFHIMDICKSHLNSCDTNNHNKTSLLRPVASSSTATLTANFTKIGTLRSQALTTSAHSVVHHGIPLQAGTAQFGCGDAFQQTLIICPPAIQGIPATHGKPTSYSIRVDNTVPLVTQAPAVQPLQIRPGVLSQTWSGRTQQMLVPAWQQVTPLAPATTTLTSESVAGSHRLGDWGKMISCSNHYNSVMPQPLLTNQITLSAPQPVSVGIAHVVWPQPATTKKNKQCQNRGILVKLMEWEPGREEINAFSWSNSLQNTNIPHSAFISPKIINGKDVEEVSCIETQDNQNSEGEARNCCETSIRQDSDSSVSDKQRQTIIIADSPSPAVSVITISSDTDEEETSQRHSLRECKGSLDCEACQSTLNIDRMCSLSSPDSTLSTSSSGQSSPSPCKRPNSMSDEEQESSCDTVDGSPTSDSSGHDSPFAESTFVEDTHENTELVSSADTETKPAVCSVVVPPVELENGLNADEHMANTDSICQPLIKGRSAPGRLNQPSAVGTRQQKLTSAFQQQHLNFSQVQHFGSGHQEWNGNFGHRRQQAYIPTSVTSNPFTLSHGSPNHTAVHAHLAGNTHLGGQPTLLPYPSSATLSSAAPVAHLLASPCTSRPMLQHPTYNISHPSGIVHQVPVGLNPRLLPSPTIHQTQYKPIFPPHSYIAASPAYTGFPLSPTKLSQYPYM

| SMILES | inhibition at 5 µM (HIPK3) | inhibition at 5 µM (TAOK3) |
| --- | --- | --- |
| CSc1nc(C(=O)Nc2ccc(Oc3ccnc(N)c3Cl)c(F)c2)c(-c2ccc(F)cc2)o1 [Compound 1] | < 50% | < 50% |
| CSc1nc(C(=O)Nc2ccc(Oc3cc4cnn(C)c4cc3Br)c(F)c2)c(-c2ccc(F)cc2)o1 [Compound 2] | < 50% | < 50% |
| CNC(=O)c1cc(Oc2ccc(NC(=O)c3nc(SC)oc3-c3ccc(F)cc3Cl)cc2)ccn1 [Compound 3] | < 50% | < 50% |
| CNC(=O)c1cc(Oc2ccc(NC(=O)c3nc(SC)oc3-c3ccc(F)c(F)c3)cc2)ccn1 [Compound 4] | 50 to 79% | 50 to 79% |
| CNC(=O)c1cc(Oc2ccc(NC(=O)c3nc(SC)oc3-c3ccc(Cl)s3)cc2)ccn1 [Compound 5] | < 50% | < 50% |
| CNC(=O)c1cc(Oc2ccc(NC(=O)c3nc(SC)oc3-c3ccc(F)cc3F)cc2)ccn1 [Compound 6] | < 50% | < 50% |
| CNC(=O)c1cc(Oc2ccc(NC(=O)c3nc(SC)oc3-c3ccc(OC)cc3)cc2)ccn1 [Compound 7] | < 50% | < 50% |
| CNC(=O)c1cc(Oc2ccc(NC(=O)c3nc(SC)oc3-c3ccc(F)s3)cc2F)ccn1 [Compound 16] | < 50% | < 50% |
| CNC(=O)c1cc(Oc2ccc(NC(=O)c3nc(NC)oc3-c3ccc(F)s3)cc2F)ccn1 [Compound 17] | < 50% | < 50% |
| CNC(=O)c1cc(Oc2c(F)cc(NC(=O)c3nc(NC)sc3-c3ccc(F)cc3)cc2F)ccn1 [Compound 19] | < 50% | 50 to 79% |
| CNC(=O)c1cc(Oc2ccc(NC(=O)c3nc(NC)sc3-c3ccc(F)cc3F)cc2F)ccn1 [Compound 21] | 50 to 79% | 50 to 79% |
| CNC(=O)c1cc(Oc2ccc(NC(=O)c3nc(NC)sc3-c3ccc(F)cc3C)cc2F)ccn1 [Compound 23] | < 50% | 50 to 79% |
| CSc1nc(C(=O)Nc2ccc(Oc3ccnc(C(=O)NC4CNC4)c3)c(F)c2)c(-c2ccc(F)s2)o1 [Compound 27] | < 50% | < 50% |
| CSc1nc(C(=O)Nc2ccc(Oc3ccnc(C(=O)NC4COC4)c3)c(F)c2)c(-c2ccc(F)s2)o1 [Compound 28] | < 50% | < 50% |
| [2H]C([2H])([2H])NC(=O)c1cc(Oc2ccc(NC(=O)c3nc(SC)oc3-c3ccc(F)s3)cc2F)ccn1 [Compound 35] | < 50% | < 50% |
| CNC(=O)c1ccc(Oc2ccc(NC(=O)c3nc(Cl)oc3-c3ccc(F)cc3)c(F)c2)cn1 [Compound 36] | 50 to 79% | < 50% |

Other lines, results leading:

| inhibition at 5 µM (HIPK3) | inhibition at 5 µM (TAOK3) | SMILES |
| --- | --- | --- |
| < 50% | < 50% | CSc1nc(C(=O)Nc2ccc(Oc3ccnc(-c4cnn(C)c4)c3)c(F)c2)c(-c2ccc(F)cc2)o1 [Compound 11] |
| 50 to 79% | 50 to 79% | CNC(=O)c1cc(Oc2ccc(NC(=O)c3nc(SC)oc3-c3ccc(F)cc3F)cc2F)ccn1 [Compound 12] |
| 80 to 89% | < 50% | CNC(=O)c1cc(Oc2ccc(NC(=O)c3nc(S(C)(=O)=O)sc3-c3ccc(F)cc3)cc2F)ccn1 [Compound 13] |
| 50 to 79% | 90 to 94% | CNC(=O)c1cc(Oc2ccc(NC(=O)c3nc(NC)oc3-c3ccc(F)cc3)cc2F)ccn1 [Compound 14] |
| 50 to 79% | < 50% | CNC(=O)c1cc(Oc2ccc(NC(=O)c3nc(OC)oc3-c3ccc(F)cc3)cc2F)ccn1 [Compound 15] |
| 50 to 79% | < 50% | CNC(=O)c1cc(Oc2ccc(NC(=O)c3nc(OC)oc3-c3ccc(F)c(F)c3)cc2F)ccn1 [Compound 24] |
| < 50% | < 50% | CNC(=O)c1cc(Oc2ccc(NC(=O)c3nc(OC)oc3-c3ccc(F)s3)cc2F)ccn1 [Compound 25] |
| 50 to 79% | 80 to 89% | CNC(=O)c1cc(Oc2ccc(NC(=O)c3nc(C4CC4)oc3-c3ccc(F)cc3)cc2F)ccn1 [Compound 26] |
| 80 to 89% | 50 to 79% | CSc1nc(C(=O)Nc2ccc(Oc3ccnc(C(=O)NC4CNC4)c3)c(F)c2)c(-c2ccc(F)cc2)o1 [Compound 29] |
| 90 to 94% | 80 to 89% | CNC(=O)c1cc(Oc2ccc(NC(=O)c3nc(COC)oc3-c3ccc(F)cc3)cc2F)ccn1 [Compound 30] |
| < 50% | < 50% | CSc1nc(C(=O)Nc2ccc(Oc3ccnc(C(=O)NC4COC4)c3)c(F)c2)c(-c2ccc(F)cc2)o1 [Compound 31] |
| 50 to 79% | 50 to 79% | CNC(=O)c1cc(Oc2ccc(NC(=O)c3nc(OC4CC4)oc3-c3ccc(F)cc3)cc2F)ccn1 [Compound 32] |
| 50 to 79% | 50 to 79% | [2H]C([2H])([2H])NC(=O)c1cc(Oc2ccc(NC(=O)c3nc(SC)oc3-c3ccc(F)c(F)c3)cc2F)ccn1 [Compound 33] |
| < 50% | 80 to 89% | CNC(=O)c1cc(Oc2ccc(NC(=O)c3nc(SC(C)C)oc3-c3ccc(F)cc3)cc2F)ccn1 [Compound 34] |
| < 50% | < 50% | CSc1nc(C(=O)Nc2ccc(Oc3ccnc(C(=O)NC4COC4)c3)c(F)c2)c(-c2ccc(F)c(F)c2)o1 [Compound 37] |
| 50 to 79% | < 50% | CNC(=O)c1cc(Oc2ccc(NC(=O)c3nc(OCC(F)(F)F)oc3-c3ccc(F)cc3)cc2F)ccn1 [Compound 38] |
| < 50% | < 50% | COc1nc(C(=O)Nc2ccc(Oc3ccnc(C(=O)NC4COC4)c3)c(F)c2)c(-c2ccc(F)cc2)o1 [Compound 39] |
| < 50% | < 50% | CSc1nc(C(=O)Nc2ccc(Oc3ccnc(C(=O)NCC(F)(F)F)c3)c(F)c2)c(-c2ccc(F)cc2)o1 [Compound 40] |
| < 50% | 50 to 79% | CSc1nc(C(=O)Nc2ccc(Oc3ccnc(C(=O)NCCN(C)C)c3)c(F)c2)c(-c2ccc(F)cc2)o1 [Compound 41] |
| 50 to 79% | < 50% | CSc1nc(C(=O)Nc2ccc(Oc3ccnc(C(=O)NC4CCN(C)CC4)c3)c(F)c2)c(-c2ccc(F)cc2)o1 [Compound 42] |
| < 50% | < 50% | COc1nc(C(=O)Nc2ccc(Oc3ccnc(C(=O)NCC(F)(F)F)c3)c(F)c2)c(-c2ccc(F)cc2)o1 [Compound 43] |
